{
  "source": "patent EP3502102A1",
  "about": "“STING INHIBITORS” (ECOLE POLYTECHNIQUE FEDERALE DE LAUSANNE (EPFL), priority 2017, dated 2019)",
  "key": {"Flag-STING [1]": {"target": "T1, Flag-STING (Mus musculus, UniProt Q3TBT3, C91S)", "T1 construct": "expressed in transfected cells; host or cells: HEK293T (lentiviral transduction, induced overnight)", "T1 sequence (Q3TBT3 1-378 C91S)": "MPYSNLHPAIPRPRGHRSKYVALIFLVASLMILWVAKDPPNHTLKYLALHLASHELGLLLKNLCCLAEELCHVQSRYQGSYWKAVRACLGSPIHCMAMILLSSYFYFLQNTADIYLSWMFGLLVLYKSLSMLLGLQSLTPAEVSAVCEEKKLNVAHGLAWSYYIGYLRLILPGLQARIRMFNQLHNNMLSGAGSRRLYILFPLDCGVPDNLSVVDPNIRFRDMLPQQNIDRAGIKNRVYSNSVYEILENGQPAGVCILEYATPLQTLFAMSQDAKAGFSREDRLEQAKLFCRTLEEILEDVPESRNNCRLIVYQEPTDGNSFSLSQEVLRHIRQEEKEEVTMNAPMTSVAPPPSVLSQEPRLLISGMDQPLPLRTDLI", "assay": "Protein mass spectrometry of immunoprecipitated Flag-STING", "format": "binding", "conditions": "Flag-STING C91S; 1µM"}, "Flag-STING [2]": {"target": "T2, Flag-STING (Mus musculus, UniProt Q3TBT3)", "T2 construct": "expressed in transfected cells; host or cells: HEK293T (lentiviral transduction, induced overnight)", "T2 sequence (Q3TBT3 1-378)": "T1 sequence (Q3TBT3 1-378 C91S) with S91C", "assay": "Protein mass spectrometry of immunoprecipitated Flag-STING", "format": "binding", "conditions": "Flag-STING; 1 µM, 30min"}},
  "note": "Positions count from the first letter of the chain named.",
  "data": [
    {"compound": "O=C(Nc1ccc(I)cc1)c1ccc([N+](=O)[O-])o1", "note": "[C-176, N-(4-iodophenyl)-5-nitro-2-furamide]", "values": [
      {"measurement": "covalent binding to STING-C91S", "setting": "Flag-STING [1]", "value": "absence of covalent binding"},
      {"measurement": "covalent modification of STING, mass shift", "setting": "Flag-STING [2]", "value": "irreversibly modify STING"},
      {"measurement": "serum concentration of type I IFNs", "setting": "Trex1 KO mice; TREX1 KO mice, compared to vehicle, 11 days", "value": "significant decrease"},
      {"measurement": "histological analysis of the heart", "setting": "Trex1 KO mice; TREX1 KO mice, 11 days", "value": "decreased cellularity"},
      {"measurement": "overt toxicity (weight changes)", "setting": "Trex1 KO mice; mouse, in vivo", "value": "no signs of overt toxicity"}
    ]}
  ]
}
